Laboratory results: patent publication US20160208002A1, “Compositions Associated with and Methods of Managing Neutrophil Movement” (priority 2013, published 2016)

Assays:
[1] = system: C57/BL6 mice treated with bleomycin; experiment: bleomycin-treated mice, cells in bronchoalveolar lavage (BAL); type: in vivo; conditions: 0.1 mg/kg intraperitoneal daily from day 1, day 3 after bleomycin, versus drug vehicle; FIG. 5A
Experimental: The successful aspiration of bleomycin into the lungs was confirmed by listening for the crackling noise heard after the aspiration. 24 hours following bleomycin aspiration (day 1), mice were treated daily with intraperitoneal injections of 50 microliters of PBS containing 2 microliters of 1 mg/ml of compound 1 (ChemBridge Corporation, San Diego, Calif.) (0.1 mg/kg) dissolved in DMSO (SigmaAldrich, St. Louis, Mo.) or an equal volume of PBS containing 2 microliters of DMSO. All animals were used in accordance with rules published by the National Institutes of Health and with a protocol approved by the Texas A&M University Institutional Animal Care and Use Committee. Mice were weighed daily, and euthanized using CO2 following NIH guidelines at day 3 after bleomycin aspiration. There were no injections on day 3. […] The cells were resuspended in 500 microliters of 4% (w/v) BSA-PBS and counted with a hemacytometer. […] Primary antibodies were detected with biotinylated mouse anti-rat antibody (Jackson ImmunoResearch, West Grove, Pa.). […] Biotinylated antibodies were detected by a 1/500 dilution of ExtrAvidin alkaline phosphatase (Vector Laboratories, Burlingame, Calif.) in 4% BSA-PBS for 30 minutes. […] After washing, the biotinylated antibodies were detected by streptavidin-alkaline phosphatase kit (Vector Laboratories) following the manufacturer's protocol.

[2] = system: C57/BL6 mice treated with bleomycin; experiment: bleomycin-treated mice, cells in lung sections after BAL; type: in vivo; conditions: 0.1 mg/kg intraperitoneal daily, day 3 after bleomycin, FIG. 5B
Experimental: The successful aspiration of bleomycin into the lungs was confirmed by listening for the crackling noise heard after the aspiration. 24 hours following bleomycin aspiration (day 1), mice were treated daily with intraperitoneal injections of 50 microliters of PBS containing 2 microliters of 1 mg/ml of compound 1 (ChemBridge Corporation, San Diego, Calif.) (0.1 mg/kg) dissolved in DMSO (SigmaAldrich, St. Louis, Mo.) or an equal volume of PBS containing 2 microliters of DMSO. All animals were used in accordance with rules published by the National Institutes of Health and with a protocol approved by the Texas A&M University Institutional Animal Care and Use Committee. Mice were weighed daily, and euthanized using CO2 following NIH guidelines at day 3 after bleomycin aspiration. There were no injections on day 3. […] The cells from the first BAL collection were collected by centrifugation at 500×g for 10 minutes. The BAL pellets were resuspended in the secondary and tertiary BAL fluid and the combined cells were collected by centrifugation at 500×g for 5 minutes. The cells were resuspended in 500 microliters of 4% (w/v) BSA-PBS and counted with a hemacytometer. 100 microliters of diluted cells were then aliquoted into cytospin funnels and were then spun onto glass slides (Superfrost plus white slides, VWR) at 400×g for 5 minutes using a cytospin centrifuge (Shandon, Cheshire, England). These cells were then air dried, and stained with anti-mouse Ly6G (Biolegend) to detect neutrophils, anti-mouse CD11b (Biolegend) to detect granulocytes, monocytes, and macrophages, anti-mouse CD11c (MBL International) to detect alveolar macrophages and dendritic cells, or anti-mouse CD45 (Biolegend) to detect leukocytes. For all slides, non-specific; binding was blocked by incubation in PBS containing 4% BSA for 60 minutes. Slides were then incubated with 5 microgram/ml primary antibodies in 4% BSA-PBS for 60 minutes. Primary antibodies were detected with biotinylated mouse anti-rat antibody (Jackson ImmunoResearch, West Grove, Pa.). All secondary antibodies were used at 2.5 microgram/ml in 4% BSA-PBS for 30 minutes. Biotinylated antibodies were detected by a 1/500 dilution of ExtrAvidin alkaline phosphatase (Vector Laboratories, Burlingame, Calif.) in 4% BSA-PBS for 30 minutes. Staining was developed with the Vector Red Alkaline Phosphatase Kit (Vector Laboratories) for 4 minutes following the manufacturer's protocol. […] After washing, the biotinylated antibodies were detected by streptavidin-alkaline phosphatase kit (Vector Laboratories) following the manufacturer's protocol.

human neutrophils [3] = experiment: human neutrophil spreading on fibronectin-coated plates after TNF-α; type: cell-based; conditions: 3 microgram/ml compound, FIG. 3
human neutrophils [4] = experiment: human neutrophil adhesion to human fibronectin after TNF-α; type: cell-based; conditions: fibronectin-coated plate, FIG. 2
Text: Human blood was collected into EDTA tubes (BD Bioscience, San Jose, Calif.) from adult volunteers who gave written consent and with specific approval from the Texas A&M University human subjects Institutional Review Board. Neutrophils were then isolated from the blood using Lympholyte-poly (Cedarlane Laboratories, Hornby, BC, Canada) following the manufacturer's protocol and resuspended in 2% bovine serum albumen (BSA) (fraction V, A3059; Sigma-Aldrich) in RPMI 1640 medium (Lonza, Allendale, N.J.). 96-well tissue culture plates (flat-bottom polystyrene, BD Bioscience) were pre-coated with 20 μg/ml of human plasma fibronectin (Trevigen, Gaithersburg, Md.) in phosphate buffered saline (PBS) for 30 minutes at 37° C. and then blocked with 2% BSA in RPMI for 1 hour at 37° C. 50 microliters of 5×10^5 cells/ml neutrophils were incubated with 3 microgram/ml (0.5 microliters of the stock solution) of compound 1 or 3 for 30 minutes at 37° C. in a 1.5 ml Eppendorf tube (Eppendorf, Hauppauge, N.Y.). When testing the effect of CD209 antibodies on neutrophil adhesion to human fibronectin, anti-human CD209 antibodies clone DCN46 (BD Biosciences, San Jose, Calif.), eB-h209 (eBioscience, San Jose, Calif.), H-200 (Santa Cruz Biotechnology, Dallas, Tex.), ab89186 (Abcam, Cambridge, Mass.), or 9E9A8 (Biolegend Inc, San Diego, Calif.) were incubated with neutrophils at a concentration of 1 microgram/ml (0.2 microliters of the stock solution) or the concentration indicated on the figure. Rat IgG2a was used as an isotype control for the anti-human CD209 antibody clone eB-h209. Mouse IgG2b was used as an isotype control for the anti-human CD209 antibody clone DCN46. Mouse IgG1 was used as an isotype control for the anti-human CD209 antibody clone 9E9A8. Rabbit IgG was used as an isotype control for the two rabbit anti-human CD209 antibodies clone H-200 and ab89186. […] After removing the media and washing the plates 3 times with PBS, the plates were air-dried, fixed, stained, and the number of neutrophils that remained in the wells was counted. […]

CD209 = molecular target: T1, CD209 (Homo sapiens, UniProt Q9NNX6); conditions: read-out: affinity for CD209, Kd; cited from earlier work
T1 sequence (Q9NNX6 1-404): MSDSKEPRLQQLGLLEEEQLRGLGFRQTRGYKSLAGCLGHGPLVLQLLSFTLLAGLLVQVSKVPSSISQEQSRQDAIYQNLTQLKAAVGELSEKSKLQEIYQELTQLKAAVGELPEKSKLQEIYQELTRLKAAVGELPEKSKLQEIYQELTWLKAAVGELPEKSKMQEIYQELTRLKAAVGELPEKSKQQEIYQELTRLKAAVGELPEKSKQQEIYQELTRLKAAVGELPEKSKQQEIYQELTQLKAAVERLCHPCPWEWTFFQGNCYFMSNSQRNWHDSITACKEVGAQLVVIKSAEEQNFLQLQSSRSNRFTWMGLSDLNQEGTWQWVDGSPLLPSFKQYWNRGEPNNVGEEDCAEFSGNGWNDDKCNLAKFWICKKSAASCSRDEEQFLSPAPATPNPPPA

CD209 tetramer = molecular target: T2, CD209 tetramer (Homo sapiens, UniProt Q9NNX6); conditions: concentration required to inhibit, by 50%, the binding of a fluorescently labeled mannosylated glycoconjugate to CD209 tetramer; cited from earlier work
T2 sequence (Q9NNX6 59-404 limits assumed): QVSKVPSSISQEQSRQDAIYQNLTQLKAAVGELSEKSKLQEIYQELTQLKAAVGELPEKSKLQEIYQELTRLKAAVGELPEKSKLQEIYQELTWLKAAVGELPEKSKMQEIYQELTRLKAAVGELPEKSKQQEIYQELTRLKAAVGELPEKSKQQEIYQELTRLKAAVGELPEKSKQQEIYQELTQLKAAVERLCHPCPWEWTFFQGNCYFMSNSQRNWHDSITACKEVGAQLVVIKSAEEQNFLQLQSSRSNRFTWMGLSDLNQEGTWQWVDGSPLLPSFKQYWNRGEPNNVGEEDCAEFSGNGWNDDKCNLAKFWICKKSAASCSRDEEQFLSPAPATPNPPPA

[5] = 3 microgram/ml compound, 30 minutes

CCC(=O)Nc1nc(C)c(-c2csc(Nc3ccc(N(C)C)cc3)n2)s1 [Compound 1]
number of CD11b-positive inflammatory macrophages in the BAL [1]: decrease
number of Ly6G-positive neutrophils in the BAL [1]: decrease
CD11c-positive macrophages in lung sections ([2]; versus drug vehicle): significant increase
CD206-positive cells in lung sections ([2]; versus drug vehicle): significant increase
number of Ly6G-positive neutrophils in lung sections ([2]; versus drug vehicle): significant decrease
CD11b-positive inflammatory macrophages in lung sections [2]: no effect
neutrophil spreading compared to the TNF-α control (human neutrophils [3]): reduced neutrophil spreading
neutrophil adhesion compared to the TNF-α control (human neutrophils [4]; [5]): significantly reduced neutrophil adhesion
Kd (CD209): 1.6 µM

CCCOC(=O)c1ccc(-c2ccc(C=C3C(=O)N(c4ccc(S(N)(=O)=O)cc4)N=C3C(F)(F)F)o2)cc1 [Compound 2]
Kd (CD209): 6.2 µM

COC(=O)c1ccc(-c2ccc(C=C3C(=O)N(c4ccc(S(N)(=O)=O)cc4)N=C3C(F)(F)F)o2)cc1 [Compound 3]
neutrophil adhesion compared to the TNF-α control (human neutrophils [4]; [5]): significantly reduced neutrophil adhesion
Kd (CD209): 32 µM

O=C1Nc2cc(C(=O)N3CCN(c4ccccc4)CC3)ccc2NC1CSCc1c(F)cccc1Cl (stereo not shown) [Compound 4]
Kd (CD209): 7.3 µM

Cc1ccc(N(C)S(=O)(=O)c2ccc3[nH]cc(C(=O)N4CCN(c5ccccc5)CC4)c(=O)c3c2)cc1C [Compound 6]
Kd (CD209): 6.1 µM

CN1CCN(c2ccc(/C=C3\Sc4ccccc4C3=O)cc2[N+](=O)[O-])CC1 [Compound 7]
Kd (CD209): 10 µM

CCCCCC1C(=O)Nc2cc(C(=O)N3CCN(CCC)CC3)ccc2N1CC (stereo not shown) [Compound 9]
IC50 (CD209 tetramer): 370 µM

CCCCCC1C(=O)Nc2cc(C(=O)N3CCN(CC)CC3)ccc2N1C (stereo not shown) [Compound 10]
IC50 (CD209 tetramer): 360 µM

CCCCC1C(=O)Nc2cc(C(=O)N3CCN(C)CC3)ccc2N1C (stereo not shown) [Compound 11]
IC50 (CD209 tetramer): 329 µM

CCCCC1Nc2ccc(C(=O)N3CCN(C)CC3)cc2NC1=O (stereo not shown) [Compound 12]
IC50 (CD209 tetramer): 313 µM

CCC(=O)CCCC1C(=O)Nc2cc(C(=O)N3CCN(c4ccccc4)CC3)ccc2N1Cc1ccccc1 (stereo not shown) [Compound 14]
IC50 (CD209 tetramer): 170 µM

O=C1Nc2cc(C(=O)N3CCN(c4ccccc4O)CC3)ccc2NC1CCCc1ccccc1 (stereo not shown) [Compound 15]
IC50 (CD209 tetramer): 113 µM

O=C1Nc2cc(C(=O)N3CCN(c4ccccc4)CC3)ccc2NC1CCCc1ccccc1C(F)(F)F (stereo not shown) [Compound 16]
IC50 (CD209 tetramer): 71 µM

CCN1c2ccc(C(=O)N3CCN(c4ncccn4)CC3)cc2NC(=O)C1CCCc1ccc(C(N)=O)cc1 (stereo not shown) [Compound 17]
IC50 (CD209 tetramer): 68 µM

CC(=O)Nc1cccc(CCCC2Nc3ccc(C(=O)N4CCN(c5cccc(C(F)(F)F)c5)CC4)cc3NC2=O)c1 (stereo not shown) [Compound 19]
IC50 (CD209 tetramer): 23 µM

O=C(O)c1ccc(CCCC2Nc3ccc(C(=O)N4CCN(c5ccco5)CC4)cc3NC2=O)cc1 (stereo not shown) [Compound 20]
IC50 (CD209 tetramer): 10 µM

COc1ccccc1N1CCN(C(=O)c2ccc3c(c2)NC(=O)C(CCCc2ccccc2C)N3)CC1 (stereo not shown) [Compound 21]
IC50 (CD209 tetramer): 4.4 µM

NC(=O)c1ccc(CCCC2Nc3ccc(C(=O)N4CCN(c5ncccn5)CC4)cc3NC2=O)cc1 (stereo not shown) [Compound 22]
IC50 (CD209 tetramer): 2.6 µM

SAP: Serum Amyloid P from EMD Millipore, known to inhibit neutrophil migration and adhesion [reference compound]
neutrophil adhesion compared to the TNF-α control (human neutrophils [4]; 10 microgram/ml SAP): significantly reduced neutrophil adhesion
